Assay results published in paper PMC12198292, “Advancing in vitro assessment of iodide uptake inhibition: integrating a novel biotransformation pretreatment step” (Archives of Toxicology, 2025).
Where “and” joins values, the source holds several entries; their conditions need not be identical. Identical values can stand only once. Like-named read-outs stand apart in the source and are kept apart here.

Assays:
NIS [1] = biological target: T1, NIS (Rattus norvegicus, UniProt Q63008); experiment: NIS-inhibition assay (iodide uptake, Sandell–Kolthoff reaction) on FRTL-5; assay type: cell-based; settings: mean ± SD, ≥ 3 independent experiments; 2 h exposure; SK reaction
T1 construct: the endogenously NIS-expressing rat FRTL-5 cell line; host or cells: FRTL-5 (CVCL_0265)
T1 sequence (Q63008 1-618): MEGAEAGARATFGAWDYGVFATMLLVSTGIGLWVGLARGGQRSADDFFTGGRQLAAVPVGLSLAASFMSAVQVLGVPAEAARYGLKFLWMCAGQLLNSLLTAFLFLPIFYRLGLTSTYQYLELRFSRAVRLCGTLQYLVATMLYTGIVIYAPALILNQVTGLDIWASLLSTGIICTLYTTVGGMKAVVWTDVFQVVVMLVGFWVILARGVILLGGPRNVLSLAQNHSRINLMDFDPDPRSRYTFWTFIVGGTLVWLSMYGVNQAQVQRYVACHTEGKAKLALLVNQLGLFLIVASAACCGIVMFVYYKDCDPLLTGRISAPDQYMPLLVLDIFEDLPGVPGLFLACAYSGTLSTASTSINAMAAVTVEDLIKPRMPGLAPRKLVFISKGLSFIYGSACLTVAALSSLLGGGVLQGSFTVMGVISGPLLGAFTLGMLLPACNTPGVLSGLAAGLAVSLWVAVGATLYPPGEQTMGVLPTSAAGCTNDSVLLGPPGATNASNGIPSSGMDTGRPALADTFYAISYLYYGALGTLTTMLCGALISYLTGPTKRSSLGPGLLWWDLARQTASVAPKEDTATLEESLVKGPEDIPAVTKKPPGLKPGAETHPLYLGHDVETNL

human NIS [2] = biological target: T2, human NIS (Homo sapiens, UniProt Q92911)
T2 sequence (Q92911 1-643): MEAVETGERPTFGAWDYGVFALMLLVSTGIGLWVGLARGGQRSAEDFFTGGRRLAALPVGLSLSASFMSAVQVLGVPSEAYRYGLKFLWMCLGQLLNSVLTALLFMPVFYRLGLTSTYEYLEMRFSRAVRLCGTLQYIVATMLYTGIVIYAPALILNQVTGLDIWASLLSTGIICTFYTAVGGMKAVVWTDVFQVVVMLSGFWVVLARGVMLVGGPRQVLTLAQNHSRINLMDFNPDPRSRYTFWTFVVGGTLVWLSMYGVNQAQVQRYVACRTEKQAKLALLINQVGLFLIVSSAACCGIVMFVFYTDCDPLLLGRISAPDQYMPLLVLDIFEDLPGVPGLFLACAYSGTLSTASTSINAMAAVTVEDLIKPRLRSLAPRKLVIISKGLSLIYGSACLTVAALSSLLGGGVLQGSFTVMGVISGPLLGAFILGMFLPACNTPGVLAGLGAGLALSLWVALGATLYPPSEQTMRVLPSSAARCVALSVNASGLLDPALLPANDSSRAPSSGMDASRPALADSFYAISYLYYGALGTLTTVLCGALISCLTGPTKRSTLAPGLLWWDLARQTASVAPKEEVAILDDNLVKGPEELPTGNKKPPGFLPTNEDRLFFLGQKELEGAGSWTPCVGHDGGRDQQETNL

[3] = parameters: method as in PubChem https://pubchem.ncbi.nlm.nih.gov/; settings: ref PubChem https://pubchem.ncbi.nlm.nih.gov/; cited from earlier work
[4] = parameters: method as in PubChem https://pubchem.ncbi.nlm.nih.gov/; settings: ref PubChem https://pubchem.ncbi.nlm.nih.gov/; cited from earlier work; remark: listed apart in the source
NIS [5] = biological target: T1, NIS; settings: FRTL-5, SK, read-out: Data from literature NIS IC50, cited from earlier work
in vitro [6] = settings: human, HEK293T NIS C cells
in vitro [7] = settings: rat, FRTL-5 cells
human NIS [8] = biological target: T2, human NIS; experiment: Biotransformation (BTS, rat S9)-augmented NIS-inhibition assay, HEK293T NIS02; settings: for effect of fully active BTS (W/S9, W/cof) on NIS inhibition versus control setups: two-way ANOVA, p < 0.05
human NIS [9] = biological target: T2, human NIS; experiment: NIS-inhibition assay (iodide uptake, Sandell–Kolthoff reaction) on HEK293T NIS 02; assay type: cell-based; parameters: host or cells: HEK293T (lentiviral transduction, puromycin selection, GFP sorting; lines NIS 02 and NIS C)
human NIS [10] = biological target: T2, human NIS; experiment: NIS-inhibition assay (iodide uptake, Sandell–Kolthoff reaction) on HEK293T NIS C; assay type: cell-based; parameters: host or cells: HEK293T (lentiviral transduction, puromycin selection, GFP sorting; lines NIS 02 and NIS C)
human NIS [11] = biological target: T2, human NIS; parameters: host or cells: HEK293T (lentiviral transduction, puromycin selection, GFP sorting; lines NIS 02 and NIS C); settings: cited from earlier work; for IC20: read-out: Data from literature NIS IC20
human NIS [12] = biological target: T2, human NIS; parameters: method as in Dong et al., 2019; settings: MCF7hNIS, SK, ref Dong et al., 2019, cited from earlier work
NIS [13] = biological target: T1, NIS; settings: FRTL-5, RAIU, read-out: Data from literature NIS IC50, cited from earlier work
hNIS = test system: hNIS; parameters: method as in Concilio et al., 2020; settings: HeLa transfected with hNIS; RAIU; ref Concilio et al., 2020; read-out: Data from literature NIS IC50; cited from earlier work
whale NIS = test system: whale NIS; parameters: method as in Concilio et al., 2020; settings: HeLa transfected with whale NIS; RAIU; ref Concilio et al., 2020; read-out: Data from literature NIS IC50; cited from earlier work
zebrafish NIS = test system: zebrafish NIS; parameters: method as in Concilio et al., 2020; settings: HeLa transfected with zebrafish NIS; RAIU; ref Concilio et al., 2020; read-out: Data from literature NIS IC50; cited from earlier work
[14] = ref PubChem https://pubchem.ncbi.nlm.nih.gov/; cited from earlier work
human NIS [15] = biological target: T2, human NIS; parameters: host or cells: HEK293T (lentiviral transduction, puromycin selection, GFP sorting; lines NIS 02 and NIS C); method as in Dong et al., 2019; settings: hNIS-HEK293T-EPA, SK, ref Dong et al., 2019, cited from earlier work
in vitro [16] = settings: human
HEK293T NIS02 cells = experiment: Neutral red uptake viability assay, HEK293T NIS02; settings: 100 µM
[17] = mean ± SD, ≥ 3 independent experiments, 2 h exposure, SK reaction, read-out: NIS IC50 HEK293T NIS 02
[18] = mean ± SD, ≥ 3 independent experiments, 2 h exposure, SK reaction, read-out: NIS IC50 HEK293T NIS C
[19] = hNIS-HEK293T-EPA, RAIU, ref Hallinger et al., 2017
[20] = read-out: Data from literature NIS IC20
[21] = read-out: Data from literature NIS IC50

Question: With CC(C)(c1ccc(O)cc1)c1ccc(O)cc1 [BPA, Bisphenol A] as the compound, how does the IC50 (NIS [1]) read?
Answer: 302 ± 197 µM

Question: And the “effect of fully active BTS (W/S9, W/cof) on NIS inhibition versus control setups” value (from here on “effect … on NIS inhibition versus control setups”) (human NIS [2])?
Answer: statistically significant reduction in NIS inhibition

Question: And the “log Kow” value [3]?
Answer: 3.32

Question: What about the “Henry‘s law” value [4] of the same compound?
Answer: 4.0x10^-11 atm- m^3/mol

Question: What about the IC50 (NIS [5]; ref Wu et al., 2016) of the same compound?
Answer: 112 µM

Question: What about the IC20 at 2 h (in vitro [6]) of the same compound?
Answer: 181 µM

Question: What about the IC20 at 2 h (in vitro [7]) of the same compound?
Answer: 364 µM

Question: And the “increase of IC20 by preincubation in fully active BTS setup compared to the denatured BTS setup” value (human NIS [8]; W/S9, W/cof vs D S9, W/cof)?
Answer: ~6.3 fold

Question: What about the IC20 (human NIS [8]; read-out: NIS inhibition IC20 SM, standard method without preincubation, run in parallel, three independent experiments) of the same compound?
Answer: 4.7 ± 6 µM

Question: What about the IC50 (human NIS [9]; [17]) of the same compound?
Answer: 111 ± 75 µM

Question: And the IC50 (human NIS [10]; [18])?
Answer: 309 ± 2.5 µM

Question: And the IC20 (human NIS [11]; [19])?
Answer: 35.5 µM

Question: And the IC20 (human NIS [11]; hNIS-HEK293T-EPA, RAIU, ref US-EPA, 2024)?
Answer: 24.3 ± 21.6 µM

Question: What about the “Data from literature NIS IC50” value (human NIS [11]; hNIS-HEK293T-EPA, RAIU, ref Wang et al., 2018) of the same compound?
Answer: n.e.

Question: What about the IC20 (human NIS [11]; hNIS-HEK293T-EPA, RAIU, ref Wang et al., 2019) of the same compound?
Answer: 19.5 µM

Question: With [O-][Cl+3]([O-])([O-])O [PCL, Perchlorate, reference compound] as the compound, how does the IC50 (NIS [1]) read?
Answer: 5.1 ± 4.6 µM

Question: What about the IC50 (NIS [5]; ref Waltz et al., 2010) of the same compound?
Answer: 0.1 µM

Question: And the IC50 (NIS [5]; ref Wu et al., 2016)?
Answer: 0.3 µM

Question: What about the IC20 (human NIS [12]; [20]) of the same compound?
Answer: 0.2 µM

Question: What about the IC50 (human NIS [12]; [21]) of the same compound?
Answer: 0.5 µM

Question: What about the IC50 (NIS [13]; ref Buckalew et al., 2020) of the same compound?
Answer: 0.2 µM

Question: What about the IC50 (NIS [13]; ref Waltz et al., 2010) of the same compound?
Answer: 0.14 µM

Question: What about the IC50 (hNIS) of the same compound?
Answer: 1.6 µM and 1.56 µM

Question: What about the IC50 (whale NIS) of the same compound?
Answer: 4.6 µM and 4.59 µM

Question: And the IC50 (zebrafish NIS)?
Answer: 0.08 µM

Question: And the solubility in water [14]?
Answer: >2000 mg/mL

Question: And the “effect … on NIS inhibition versus control setups” value (human NIS [8])?
Answer: no significant differences were observed

Question: What about the IC50 (human NIS [9]; [17]) of the same compound?
Answer: 1.65 ± 0.57 µM

Question: And the IC50 (human NIS [10]; [18])?
Answer: 14.9 ± 8.3 µM

Question: And the IC20 (human NIS [11]; hNIS-HEK293T-EPA, RAIU, ref Dong et al., 2019)?
Answer: 0.1 µM

Question: What about the IC50 (human NIS [11]; hNIS-HEK293T-EPA, RAIU, ref Dong et al., 2019, read-out: Data from literature NIS IC50) of the same compound?
Answer: 0.53 µM

Question: And the IC20 (human NIS [11]; [19])?
Answer: 0.2 µM

Question: What about the IC20 (human NIS [15]; [20]) of the same compound?
Answer: 0.2 µM

Question: What about the IC50 (human NIS [15]; [21]) of the same compound?
Answer: 0.8 µM

Question: Which IC50 (NIS [1]) does the source give for Oc1cc(Cl)ccc1Oc1ccc(Cl)cc1Cl [TCS, Triclosan] here?
Answer: 39.3 ± 18.9 µM

Question: What about the IC50 (NIS [5]; ref Wu et al., 2016) of the same compound?
Answer: 21.3 µM

Question: What about the IC20 at 2 h (in vitro [16]) of the same compound?
Answer: 45.9 µM

Question: What about the “cytotoxicity in the standard NIS assay (NR and CTG)” value (HEK293T NIS02 cells) of the same compound?
Answer: cytotoxic

Question: What about the “increase of IC20 by preincubation in fully active BTS setup compared to the denatured BTS setup” value (human NIS [8]) of the same compound?
Answer: approximately 5 fold

Question: And the IC20 (human NIS [8]; read-out: NIS inhibition IC20 D S9, W/cof, 5 h preincubation with denatured S9 and cofactors, three independent experiments)?
Answer: 1.07 ± 0.65 µM

Question: And the IC20 (human NIS [8]; read-out: NIS inhibition IC20 SM)?
Answer: 1.78 ± 1.12 µM

Question: And the IC20 (human NIS [8]; read-out: NIS inhibition IC20 W/O S9, W/cof, 5 h preincubation without S9 fraction, with all cofactors, three independent experiments)?
Answer: 1.02 ± 0.82 µM

Question: What about the “effect … on NIS inhibition versus control setups” value (human NIS [8]) of the same compound?
Answer: statistically significant reduction in NIS inhibition

Question: And the IC50 (human NIS [9]; NIS IC50 HEK293T NIS 02)?
Answer: 18.5 ± 9.9 µM

Question: And the IC50 (human NIS [10])?
Answer: 34.8 ± 23.5 µM

Question: What about the IC20 (human NIS [11]) of the same compound?
Answer: 2.6 µM
